According to patent US20190328869A1, “IMMUNOTHERAPEUTIC PRODUCT AND MDSC MODULATOR COMBINATION THERAPY” (Transgene SA, priority 2016, published 2019):

Key:
[1] = system: Adenovirus-specific T cells producing IFNγ; assay: IFNγ-ELISpot, vector-specific T cell response (Ad-specific peptide FAL) in HBV-persistent mice; format: in vivo, C57BL/6J mice; details: splenocytes, day 76 post AAV2/8-HBV; sildenafil 20 mg/kg/day D31-59 or D48-76; AdTG18201 2×10^9 vp sc D36, 43, 50
Experimental: The capacity of splenocytes to produce IFNγ after different in vitro stimulations was measured by an IFNγ-ELISpot assay at day 76 post AAV2/8-HBV injection. Vector-specific T cell responses were assessed using the Ad-specific peptide FAL. Results are shown as the number of spots per 10^6 splenocytes. Each dot represents an individual mouse and thick line represents the mean value for each group (+/−SEM). The horizontal gray line represents the technical cutoff value (50 spots/10^6 cells) above which values are considered as positive T cell responses and which was defined as described in the Material and Methods. For groups with a positive T cell response, incidence of mice per group is indicated on the graph.
The HBV persistent mice used in the study were described by Dion et al. (2013, J Virol, 87(10):5554-63). […] This allows the analysis of HBV-specific viral parameters (HBsAg, HBeAg, HBcAg and viremia) as well as immunological read-outs (ICS, ELISpot or humoral immune responses). […]
IFNg-producing T cells were quantified by cytokine-specific ELISpot (enzyme linked immunospot) assay as previously described (Himoudi et al., 2002, J. Virol. 76: 12735). The number of spots (corresponding to the IFNg-producing T cells) in negative control wells were subtracted from the number of spots detected in experimental wells containing HBV peptides. […]

[2] = system: anti-HBc antibodies; assay: Anti-HBc antibody level by ELISA in HBV-persistent mice; format: in vivo, C57BL/6J mice; details: serum 1/2000, up to day 76; sildenafil 20 mg/kg/day D31-59 or D48-76
Source text: Graphs A-F illustrate anti-HBc antibody levels determined respectively in individual mice of the six study groups 1-6. Individual mice are shown as thin line and the group mean titers as bold dotted black line. In all graphs the Y-axis indicates the anti-HBc levels (OD450) and the X-axis the time (number of days post-AAV2/8-HBV injection). Time points of immunization (D36, D43, D50) are shown by a dashed line and the period of sildenafil treatment is shown by a horizontal bar on the top of the graph.
The HBV persistent mice used in the study were described by Dion et al. (2013, J Virol, 87(10):5554-63). The model is based on the introduction in mice of an adeno-associated virus (AAV) encoding for a full length HBV genome (AAV2/8-HBV) and causing the production of infectious HBV particles in mouse livers. This allows the analysis of HBV-specific viral parameters (HBsAg, HBeAg, HBcAg and viremia) as well as immunological read-outs (ICS, ELISpot or humoral immune responses). […]
96-well Immulon 4HBX plates (Thermo Scientific) were coated overnight at +4° C. with 100 μL of recombinant HBc (Prospec) diluted to 1 μg/mL in BupH Carbonate-Bicarbonate buffer (Thermo Scientific Cat#28382). […] Ten minutes later, reaction was stopped by adding of 100 μL per well of 1N HCl and optic density was measured at 450 nm with Tecan Infinity 200 reader. […]

[3] = system: CT26-MUC1 cells; assay: Survival in CT26 colon cancer tumor model; format: in vivo, BALB/c mice; details: 44 days post tumor implantation; MVATG9931 5×10^7 pfu day 2 and 9; sildenafil 80 mg/kg/day drinking water day 0 to 28; 12 mice per group

CCCc1nn(C)c2c(=O)nc(-c3cc(S(=O)(=O)N4CCN(C)CC4)ccc3OCC)[nH]c12 [sildenafil, 1-[[3-(4,7-dihydro-1-methyl-7-oxo-3-propyl-1H-pyrazolo[4,3-d]pyrimidin-5-yl)-4-ethoxyphenyl]sulfonyl]-4-methylpiperazine]
IFNg-response to the Ad-specific peptide FAL [1]: negative
anti-HBc antibodies induction (OD450) [2]: no anti-HBc antibodies were induced
mice still alive (survival) [3]: 20%
